≈ marks a conversion by molar mass, not a printed value.
Experiments:
PC-12 [1] = assay: Potency in PC12 cells assessed by recovery of NAD+ at 1 uM; type: functional, Rattus norvegicus
PC-12 [2] = assay: Efficacy in PC12 cells assessed by recovery of NAD+ at 30 uM; type: functional, Rattus norvegicus
PC-12 [3] = assay: Potency in PC12 cells assessed by recovery of NAD+ at 10 uM; type: functional, Rattus norvegicus
[4] = Aqueous solubility of compound; type: physicochemical; conditions: water (aqueous)

Cc1ccc2[nH]c3c4c(c5c(c3c2c1)CNC5=O)CCC4
Activity (PC-12 [1]): 17%
Efficacy (PC-12 [2]): 50%

CN(Cc1ccncc1)C(=O)c1ccc2[nH]c3c4c(c5c(c3c2c1)CNC5=O)CCC4
Activity (PC-12 [1]): 23%
Efficacy (PC-12 [2]): 101%

CN(CCc1c[nH]cn1)C(=O)c1ccc2[nH]c3c4c(c5c(c3c2c1)CNC5=O)CCC4
Activity (PC-12 [1]): 5%
Efficacy (PC-12 [2]): 39%

O=C(NCCn1ccnn1)c1ccc2[nH]c3c4c(c5c(c3c2c1)CNC5=O)CCC4
Activity (PC-12 [1]): 12%
Efficacy (PC-12 [2]): 28%

CN(Cc1ccccn1)C(=O)c1ccc2[nH]c3c4c(c5c(c3c2c1)CNC5=O)CCC4
Activity (PC-12 [1]): 11%
Efficacy (PC-12 [2]): 44%

O=C1NCc2c1c1c(c3[nH]c4ccccc4c23)CCC1
Activity (PC-12 [1]): 48%
Activity (PC-12 [3]): 68%
solubility [4]: < 0.001 mg/mL

N#Cc1ccc2[nH]c3c4c(c5c(c3c2c1)CNC5=O)CCC4
Activity (PC-12 [1]): 26%
Activity (PC-12 [3]): 74%
Efficacy (PC-12 [2]): 122%

CN(C)CCNC(=O)c1ccc2[nH]c3c4c(c5c(c3c2c1)CNC5=O)CCC4
Activity (PC-12 [1]): 6%
Efficacy (PC-12 [2]): 36%

NCCCCC(N)C(=O)NCc1ccc2[nH]c3c4c(c5c(c3c2c1)CNC5=O)CCC4 (stereo not given)
Activity (PC-12 [1]): 2%
Efficacy (PC-12 [2]): 48%

O=C(O)c1ccc2[nH]c3c4c(c5c(c3c2c1)CNC5=O)CCC4
Activity (PC-12 [1]): 24%
Efficacy (PC-12 [2]): 65%

O=C1NCc2c1c1c(c3[nH]c4ccc(Br)cc4c23)CCC1
Activity (PC-12 [1]): 28%
Activity (PC-12 [3]): 47%

COC(=O)c1ccc2[nH]c3c4c(c5c(c3c2c1)CNC5=O)CCC4
Activity (PC-12 [1]): 38%
Efficacy (PC-12 [2]): 134%

O=C1NCc2c1c1c(c3[nH]c4ccc(C(=O)N5CCOCC5)cc4c23)CCC1
Activity (PC-12 [1]): 18%
Efficacy (PC-12 [2]): 74%

O=C1NCc2c1c1c(c3[nH]c4ccc(Cl)cc4c23)CCC1
Activity (PC-12 [1]): 26%
Efficacy (PC-12 [2]): 133%

O=C(NCCN1CCOCC1)c1ccc2[nH]c3c4c(c5c(c3c2c1)CNC5=O)CCC4
Activity (PC-12 [1]): 7%
Efficacy (PC-12 [2]): 27%

NCc1ccc2[nH]c3c4c(c5c(c3c2c1)CNC5=O)CCC4
Activity (PC-12 [1]): 39%
Efficacy (PC-12 [2]): 102%
solubility [4]: 0.1 mg/mL (≈ 343 µM)

From ChEMBL document CHEMBL1138164, “Synthesis and structure-activity relationships of novel pyrrolocarbazole lactam analogs as potent and cell-permeable inhibitors of poly(ADP-ribose)polymerase-1 (PARP-1)” (Bioorg Med Chem Lett, 2006)
